This is an account of results in patent US5817668A, “S-heteroatom containing alkyl substituted-3-oxo-pyrido[1,2-A]benzimidozole-4-carboxamide derivatives useful in treating central nervous system disorders” (Ortho Pharmaceutical Corporation, priority 1997, dated 1998).

Where two headings read alike, the source gives them in different places.

Test [1] concerns the target benzodiazepine site of the GABA-A receptor. Nature of the test: Benzodiazepine receptor binding: inhibition of 3H-flunitrazepam binding to prepared receptor membranes. The settings on record: read-out: GABAA Receptor Binding IC50; 3H-flunitrazepam ca. 3 nM, 10-20 min, 25 °C; >10,000 = not active.
Test [2] deals with metrazol-induced convulsions in male CD1 mice. The test can be described thus: Suppression of metrazol-induced clonic convulsions in adult male mice. It is filed as in vivo, mouse (male CD1). The settings on record: Mus musculus, 0.5 h, >30 = active dose not determined. On the procedure: […] Water was not withheld except during the period of observations. […] Metrazol was dissolved in 0.9% sodium chloride solution, and its dose volume was 10 ml/kg. Animals were housed individually for observation of clonic convulsions, tonic convulsions and death for a period of 30 min. […] The biological assay was considered to be valid if the effects of a known anticonvulsant (positive control) were detected, within the same experiment. Activity was reported as percent reduction of clonic convulsions from the vehicle group.

Test [3] relates to behavior suppressed by punishment (conflict) in male rats. The test can be described thus: Suppression of anxiety in adult male rat (punished-licking conflict test, Vogel). In kind it is in vivo. The settings on record: minimum effective dose, >10 = active dose not yet determined; for minimal effective dose: Rattus norvegicus. On the procedure: Male rats were deprived of water for 48 hours and were deprived of food for 24 hours prior to testing. After the first 24 hours of water deprivation, they were placed in the conflict chamber for a training period; wherein, they were allowed 200 unpunished licks from a bottle containing tap water. The experiment was run the next day. At the expected time of peak activity, the animals were placed in the chamber and allowed access to tap water. […] Their first lick initiates a 3-min test session. Subsequently,every 20th lick was punished by a 0.2-s shock delivered via the stainless-steel drinking-tube.
The Wilcoxon rank-sum test (Mann-Whitney U-test) was used to test for an increase (p<0.05, 1-tailed) in the median number of shocks in drug-treatedgroups, compared to a concurrently run vehicle-treated group. The biological assay is considered to be valid if the effects of a known anxiolytic (positive control) are detected, within the same experiment.

Setting [4] is: ip, ip, read-out: Mouse Metrazol ED50, ip.
[5] abbreviates: po, po, read-out: Mouse Metrazol ED50, po.
Where [6] appears, read: ip, read-out: Rat Conflict MED, ip.
[7] abbreviates: po, read-out: Rat Conflict MED, po.

Usually IC50 stands for the concentration at which inhibition is half-maximal. For orientation: ED50 means the midpoint of the dose-response relation. Consider `C#CCN1C2=C(C(=O)Nc3ccccc3F)C(=O)CCN2c2ccc(F)cc21` [Compound 85], for which, in test [1], the IC50 was found to be 0.072 nM. The ED50 in test [2] (setting [4]) is 0.006 mg/kg; in test [2] (setting [5]) it was 1 mg/kg. Further, the values for the minimal effective dose in test [3] (setting [6]) and in test [3] (setting [7]) were below 10 mg/kg and 1 mg/kg, respectively.

With `COCCN1C2=C(C(=O)Nc3nccs3)C(=O)CCN2c2ccc(F)cc21` [Compound 140], the “Rat Conflict MED, po” value in test [3] (po) is recorded as above 10 mg/kg.

Consider `CCOCN1C2=C(C(=O)Nc3ccccc3F)C(=O)CCN2c2c1ccc(F)c2F` [Compound 128], for which the IC50 in test [1] was 126 nM. For the same compound, the ED50 in test [2] (setting [4]) was at least 1 mg/kg; in test [2] (setting [5]), above 30 mg/kg. Also, the minimal effective dose in test [3] (setting [7]) was above 10 mg/kg.

With `COCCN1C2=C(C(=O)Nc3nccs3)C(=O)CCN2c2ccc(F)cc21` [Compound 155], the “Rat Conflict MED, po” value in test [3] (po) is reported as 3 mg/kg.

As to `CC(=O)OCCN1C2=C(C(=O)Nc3ccccc3F)C(=O)CCN2c2ccc(F)cc21` [Compound 119, 7-Fluoro-1,2-dihydro-5-(2-acetoxyethyl)-3-oxo-N-(2-fluorophenyl)pyrido[1,2-a]benzimidazole-4-carboxamide], the IC50 in test [1] worked out at 0.25 nM.

Consider `C[S+]([O-])CCN1C2=C(C(=O)Nc3ccccc3F)C(=O)CCN2c2ccc(F)cc21` (centres unmarked) [Compound 183, 7-Fluoro-1,2-dihydro-5-[2-(methylsulfoxy)ethyl]-3-oxo-N-(2-fluorophenyl)pyrido[1,2-a]benzimidazole-4-carboxamide], for which the IC50 in test [1] was 6.19 nM.

As for `COc1ccc(NC(=O)C2=C3N(CC#N)c4cc(F)ccc4N3CCC2=O)cc1` [Compound 82], the IC50 in test [1] turned out to be 8.55 nM. Also, the figures for the ED50 in test [2] (setting [4]) and in test [2] (setting [5]) were below 1 mg/kg and above 30 mg/kg, respectively. For the same compound, the minimal effective dose in test [3] (setting [7]) is above 10 mg/kg.

In the case of `O=C1CCN2C(=C1C(=O)Nc1ccccc1F)N(CC(O)CO)c1cc(F)ccc12` (centres unmarked) [Compound 162, 7-Fluoro-1,2-dihydro-5-[2,3-dihydroxypropyl]-3-oxo-N-(2-fluorophenyl)pyrido[1,2-a]benzimidazole-4-carboxamide], in test [1], the IC50 amounted to 16 nM.

In the case of `CN1CCCC(N2C3=C(C(=O)Nc4c(F)cccc4F)C(=O)CCN3c3ccc(F)cc32)C1` (centres unmarked) [Compound 86], in test [1], the IC50 is 26.3 nM. For the same compound, the ED50 was above 10 mg/kg in test [2] (setting [4]) and above 30 mg/kg in test [2] (setting [5]). In addition, the minimal effective dose in test [3] (setting [6]) was 10 mg/kg; in test [3] (setting [7]), above 10 mg/kg.

As for `O=C1CCN2C(=C1C(=O)Nc1ccccc1F)N(CCNC(=O)c1ccccc1)c1cc(F)ccc12` [Compound 46], the IC50 in test [1] was 6.1 nM.

Regarding `CCOCCN1C2=C(C(=O)Nc3ccccc3F)C(=O)CCN2c2ccc(F)cc21` [Compound 160], the IC50 in test [1] was found to be 0.48 nM. For the same compound, the ED50 in test [2] (setting [4]) is below 1 mg/kg; in test [2] (setting [5]), 0.3 mg/kg. Further, the figures for the minimal effective dose in test [3] (setting [6]) and in test [3] (setting [7]) were below 10 mg/kg and 1 mg/kg, respectively.
